Test results: the NIST ThermoML archive (doi:10.1021/acs.jced.7b00347)

Assay: mn = molality of the nth substance listed, in mol/kg
Conditions: for surface tension liquid-gas: Ring tensiometer; for electrical conductivity: 100 kPa, Liquid, Alternating current cell with electrodes

CCCCCCCCC[NH+](CCO)CC(C)O.[Cl-] (stereo unspecified) + O
Conditions	electrical conductivity [S/m]	surface tension liquid-gas [mN/m]
293.15 K, m1 = 1.77e-05	0.00044	–
293.15 K, m1 = 1.774e-05	–	61.16
293.15 K, m1 = 3.548e-05	–	54.59
293.15 K, m1 = 3.66e-05	0.000507	–
293.15 K, m1 = 5.55e-05	0.000574	–
293.15 K, m1 = 7.43e-05	0.000641	–
293.15 K, m1 = 8.87e-05	–	46.05
293.15 K, m1 = 9.32e-05	0.000709	–
293.15 K, m1 = 0.0001121	0.000776	–
293.15 K, m1 = 0.0001309	0.000843	–
293.15 K, m1 = 0.0001498	0.00091	–
293.15 K, m1 = 0.0001687	0.000977	–
293.15 K, m1 = 0.0001774	–	39.04
293.15 K, m1 = 0.0001875	0.00104	–
293.15 K, m1 = 0.0002064	0.00111	–
293.15 K, m1 = 0.0002253	0.00118	–
293.15 K, m1 = 0.0002441	0.00125	–
293.15 K, m1 = 0.000263	0.00131	–
293.15 K, m1 = 0.0002661	–	35.47
293.15 K, m1 = 0.0002819	0.00138	–
293.15 K, m1 = 0.0003008	0.00145	–
293.15 K, m1 = 0.0003196	0.00152	–
293.15 K, m1 = 0.0003385	0.00158	–
293.15 K, m1 = 0.0003548	–	33.14
293.15 K, m1 = 0.0003574	0.00165	–
293.15 K, m1 = 0.0003762	0.00172	–
293.15 K, m1 = 0.0003951	0.00178	–
293.15 K, m1 = 0.000414	0.00185	–
293.15 K, m1 = 0.0004257	–	31.39
293.15 K, m1 = 0.0004328	0.00192	–
293.15 K, m1 = 0.0004555	0.00197	–
293.15 K, m1 = 0.0004782	0.00202	–
293.15 K, m1 = 0.0005009	0.00207	–
293.15 K, m1 = 0.0005236	0.00212	–
293.15 K, m1 = 0.0005464	0.00217	–
293.15 K, m1 = 0.0005691	0.00222	–
293.15 K, m1 = 0.0005918	0.00227	–
293.15 K, m1 = 0.0006145	0.00232	–
293.15 K, m1 = 0.0006372	0.00236	–
293.15 K, m1 = 0.0006599	0.00242	–
293.15 K, m1 = 0.0006826	0.00246	–
293.15 K, m1 = 0.0007053	0.00251	–
293.15 K, m1 = 0.000728	0.00256	–
293.15 K, m1 = 0.0007507	0.00261	–
293.15 K, m1 = 0.0007734	0.00266	–
293.15 K, m1 = 0.0007961	0.00271	–
293.15 K, m1 = 0.0008188	0.00276	–
293.15 K, m1 = 0.0008415	0.00281	–
293.15 K, m1 = 0.0008642	0.00286	–
293.15 K, m1 = 0.0008869	0.00291	–
293.15 K, m1 = 0.000887	–	30.48
293.15 K, m1 = 0.001774	–	29.73
293.15 K, m1 = 0.002661	–	29.56
293.15 K, m1 = 0.003547	–	29.48
298.15 K, m1 = 1.77e-05	0.00054	–
298.15 K, m1 = 1.774e-05	–	56.05
298.15 K, m1 = 3.548e-05	–	49.71
298.15 K, m1 = 4.07e-05	0.000642	–
298.15 K, m1 = 6.36e-05	0.000745	–
298.15 K, m1 = 8.66e-05	0.000848	–
298.15 K, m1 = 8.87e-05	–	41.62
298.15 K, m1 = 0.0001095	0.00095	–
298.15 K, m1 = 0.0001324	0.00105	–
298.15 K, m1 = 0.0001554	0.00115	–
298.15 K, m1 = 0.0001774	–	35.73
298.15 K, m1 = 0.0001783	0.00126	–
298.15 K, m1 = 0.0002013	0.00136	–
298.15 K, m1 = 0.0002242	0.00146	–
298.15 K, m1 = 0.0002472	0.00156	–
298.15 K, m1 = 0.0002661	–	32.44
298.15 K, m1 = 0.0002701	0.00167	–
298.15 K, m1 = 0.000293	0.00177	–
298.15 K, m1 = 0.000316	0.00187	–
298.15 K, m1 = 0.0003389	0.00198	–
298.15 K, m1 = 0.0003619	0.00208	30.45
298.15 K, m1 = 0.0003881	0.00215	–
298.15 K, m1 = 0.0004144	0.00222	–
298.15 K, m1 = 0.0004406	0.00229	–
298.15 K, m1 = 0.0004669	0.00237	–
298.15 K, m1 = 0.0004931	0.00244	–
298.15 K, m1 = 0.0005194	0.00251	–
298.15 K, m1 = 0.0005456	0.00258	–
298.15 K, m1 = 0.0005719	0.00265	–
298.15 K, m1 = 0.0005981	0.00273	–
298.15 K, m1 = 0.0006244	0.0028	–
298.15 K, m1 = 0.0006507	0.00287	–
298.15 K, m1 = 0.0006769	0.00294	–
298.15 K, m1 = 0.0007032	0.00301	–
298.15 K, m1 = 0.0007294	0.00309	–
298.15 K, m1 = 0.0007557	0.00316	–
298.15 K, m1 = 0.0007819	0.00323	–
298.15 K, m1 = 0.0008082	0.0033	–
298.15 K, m1 = 0.0008344	0.00337	–
298.15 K, m1 = 0.0008607	0.00345	–
298.15 K, m1 = 0.0008869	0.00352	–
298.15 K, m1 = 0.000887	–	29.41
298.15 K, m1 = 0.001774	–	28.9
298.15 K, m1 = 0.002661	–	28.56
298.15 K, m1 = 0.003547	–	28.41
303.15 K, m1 = 1.77e-05	0.00064	–
303.15 K, m1 = 1.774e-05	–	51.35
303.15 K, m1 = 3.548e-05	–	46.22
303.15 K, m1 = 3.66e-05	0.000736	–
303.15 K, m1 = 5.54e-05	0.000832	–
303.15 K, m1 = 7.43e-05	0.000928	–
303.15 K, m1 = 8.87e-05	–	38.79
303.15 K, m1 = 9.31e-05	0.00102	–
303.15 K, m1 = 0.000112	0.00112	–
303.15 K, m1 = 0.0001308	0.00122	–
303.15 K, m1 = 0.0001497	0.00131	–
303.15 K, m1 = 0.0001685	0.00141	–
303.15 K, m1 = 0.0001774	–	33.47
303.15 K, m1 = 0.0001874	0.00151	–
303.15 K, m1 = 0.0002062	0.0016	–
303.15 K, m1 = 0.0002251	0.0017	–
303.15 K, m1 = 0.0002439	0.00179	–
303.15 K, m1 = 0.0002628	0.00189	–
303.15 K, m1 = 0.0002661	–	30.23
303.15 K, m1 = 0.0002816	0.00199	–
303.15 K, m1 = 0.0003004	0.00208	–
303.15 K, m1 = 0.0003193	0.00218	–
303.15 K, m1 = 0.0003229	–	29.48
303.15 K, m1 = 0.0003451	0.00227	–
303.15 K, m1 = 0.0003548	–	29.41
303.15 K, m1 = 0.0003709	0.00236	–
303.15 K, m1 = 0.0003967	0.00245	–
303.15 K, m1 = 0.0004225	0.00254	–
303.15 K, m1 = 0.0004483	0.00263	–
303.15 K, m1 = 0.0004741	0.00272	–
303.15 K, m1 = 0.0004999	0.00281	–
303.15 K, m1 = 0.0005257	0.00291	–
303.15 K, m1 = 0.0005515	0.003	–
303.15 K, m1 = 0.0005773	0.00309	–
303.15 K, m1 = 0.0006031	0.00318	–
303.15 K, m1 = 0.0006289	0.00327	–
303.15 K, m1 = 0.0006547	0.00336	–
303.15 K, m1 = 0.0006805	0.00345	–
303.15 K, m1 = 0.0007063	0.00354	–
303.15 K, m1 = 0.0007321	0.00363	–
303.15 K, m1 = 0.0007579	0.00372	–
303.15 K, m1 = 0.0007837	0.00381	–
303.15 K, m1 = 0.0008095	0.00391	–
303.15 K, m1 = 0.0008353	0.004	–
303.15 K, m1 = 0.0008611	0.00409	–
303.15 K, m1 = 0.0008869	0.00418	–
303.15 K, m1 = 0.000887	–	28.48
303.15 K, m1 = 0.001774	–	28.01
303.15 K, m1 = 0.002661	–	27.82
303.15 K, m1 = 0.003547	–	27.65
308.15 K, m1 = 8.869e-06	–	52.23
308.15 K, m1 = 1.77e-05	0.00074	–
308.15 K, m1 = 1.774e-05	–	47.19
308.15 K, m1 = 3.42e-05	0.000841	–
308.15 K, m1 = 3.548e-05	–	42.29
308.15 K, m1 = 5.07e-05	0.000941	–
308.15 K, m1 = 6.72e-05	0.00104	–
308.15 K, m1 = 8.36e-05	0.00114	–
308.15 K, m1 = 8.87e-05	–	35.88
308.15 K, m1 = 0.0001001	0.00124	–
308.15 K, m1 = 0.0001166	0.00134	–
308.15 K, m1 = 0.000133	0.00144	–
308.15 K, m1 = 0.0001495	0.00154	–
308.15 K, m1 = 0.000166	0.00165	–
308.15 K, m1 = 0.0001774	–	30.89
308.15 K, m1 = 0.0001825	0.00175	–
308.15 K, m1 = 0.0001989	0.00185	–
308.15 K, m1 = 0.0002154	0.00195	–
308.15 K, m1 = 0.0002319	0.00205	–
308.15 K, m1 = 0.0002483	0.00215	28.73
308.15 K, m1 = 0.0002732	–	28.57
308.15 K, m1 = 0.0002803	0.00229	–
308.15 K, m1 = 0.0003122	0.00243	–
308.15 K, m1 = 0.0003441	0.00257	–
308.15 K, m1 = 0.0003548	–	28.44
308.15 K, m1 = 0.0003761	0.00271	–
308.15 K, m1 = 0.000408	0.00285	–
308.15 K, m1 = 0.0004399	0.00299	–
308.15 K, m1 = 0.0004718	0.00313	–
308.15 K, m1 = 0.0005038	0.00327	–
308.15 K, m1 = 0.0005357	0.00341	–
308.15 K, m1 = 0.0005676	0.00356	–
308.15 K, m1 = 0.0005996	0.00369	–
308.15 K, m1 = 0.0006315	0.00384	–
308.15 K, m1 = 0.0006634	0.00398	–
308.15 K, m1 = 0.0006954	0.00412	–
308.15 K, m1 = 0.0007273	0.00426	–
308.15 K, m1 = 0.0007592	0.0044	–
308.15 K, m1 = 0.0007911	0.00454	–
308.15 K, m1 = 0.0008231	0.00468	–
308.15 K, m1 = 0.000855	0.00482	–
308.15 K, m1 = 0.0008869	0.00496	–
308.15 K, m1 = 0.000887	–	27.73
308.15 K, m1 = 0.001774	–	27.41
308.15 K, m1 = 0.002661	–	27.23
